From paper PMC12469672, “Effects on Oral Squamous Carcinoma Cell Lines and Their Mechanisms of Pyrazole N-Aryl Sulfonate: A Novel Class of Selective Cyclooxygenase-2 Inhibitors” (International Journal of Molecular Sciences, 2025)
“Also recorded” adds a separate entry of the source.

Assays:
[1] = test system: JAK/STAT signaling pathway in SAS cells; assay: Western blot JAK/STAT signaling pathway, SAS; format: cell-based
Protocol: Cell lysates were centrifuged at 12,000× g for 10 min at 4 °C and then quantified using the BCA Protein Assay Kit (CW0014S, Cwbio, Taizhou, China). The lysate was denatured with sodium dodecyl sulfate–polyacrylamide gel electrophoresis (SDS-PAGE) sample loading buffer (P1040, Solarbio, Beijing, China), followed by SDS-PAGE and electrotransfer to polyvinylidene difluoride membranes (10600023, Cytiva, Marlborough, MA, USA). […] The bands were visualized by employing an ECL detection reagent (36208ES76, Yeasen, Shanghai, China) and independently quantified twice using ImageJ (v1.8.0.322) and ChemiScope Analysis (Version 2.1.6.0) software. […]

HepG2 = settings: previous experiments, preliminary screening; cited from earlier work
[2] = cited from earlier work
BCL2 mRNA in SAS cells = assay: RT-qPCR BCL2 mRNA, SAS; format: cell-based; settings: vs NC and CXB groups
Protocol: (§1) Equal amounts of RNA were reverse transcribed into cDNA using the Reverse Transcription Kit (AG11705, Accurate Biology, Guangzhou, China) following the manufacturer’s instructions. Quantitative PCR was performed on a QIAGEN Rotor-GeneQ system (9001862, QIAGEN, Hilden, Germany) with SYBR Green Pro Taq HS Premix II (AG11702, Accurate Biology, China).
(§2) The PCR protocol consisted of initial denaturation at 95 °C for 30 s, followed by 40 cycles of 95 °C for 5 s and 60 °C for 30 s. All reactions were performed in triplicate, with melting curve analysis confirming amplification specificity. The expression of the target genes was normalized to GAPDH, and fold changes were calculated in the manner of the 2^−ΔΔCT .

[3] = test system: CYP19A1 mRNA in CAL-27 cells; assay: RT-qPCR CYP19A1 mRNA, CAL-27; format: cell-based; settings: CAL-27, vs control
Protocol: as §1, §2

CAL-27 cells = assay: Annexin V-FITC/PI flow cytometry apoptosis, CAL-27; format: cell-based; settings: CAL-27, 24 h, vs control
Protocol: After 24 h drug treatment at the predefined working concentrations, CAL-27 and SAS cells were trypsinized, centrifuged (200× g, 5 min, RT), and washed twice with 1 mL ice-cold PBS. Cell aliquots ((5–10) × 10^4 cells) were resuspended in 195 μL Annexin V-FITC binding buffer, followed by sequential addition of 5 μL Annexin V-FITC and 10 μL propidium iodide (PI) (BMS500FI-100, Thermo Fisher Scientific, Wien, Austria) with gentle mixing. After 10–20 min of incubation in darkness (20–25 °C) with intermittent resuspension (2–3 times), samples were placed on ice and analyzed within 1 h using a flow cytometer (CytExpert software [Version 2.4.0.28, Beckman Coulter, Brea, CA, USA]). Triplicate independent experiments were performed for statistical analysis.

MMP9 mRNA in SAS cells = assay: RT-qPCR MMP9 mRNA, SAS; format: cell-based; settings: vs control
Protocol: as §1, §2

[4] = cited from earlier work; remark: listed apart in the source

Compound	p-JAK1 level (Western blot) [1]	antiproliferative effect on HepG2 (HepG2)	apoptosis of HepG2 (HepG2)	migration of HepG2 (HepG2)	oral toxicity [2]	BCL2 mRNA expression (BCL2 mRNA in SAS cells)	CYP19A1 mRNA expression [3]	total apoptotic cell population (early and late apoptosis) (CAL-27 cells)	MMP9 mRNA level (MMP9 mRNA in SAS cells)	anti-inflammatory and analgesic activities [4]	total JAK1 (Western blot) ([1]; vs NC)
Cc1ccc(-c2cc(C)n(S(=O)(=O)Oc3ccc(I)cc3)n2)cc1 [Compound 4b]	no significant change	concentration-dependent antiproliferative effects	induction of apoptosis	suppression of migration	low oral toxicity	significantly suppressed	significantly downregulated	significantly higher; also recorded: strongest pro-apoptotic effect	significant reduction	excellent	–
Cc1ccc(-c2cc(C)n(S(=O)(=O)Oc3ccccc3Cl)n2)cc1 [Compound 4d]	–	concentration-dependent antiproliferative effects	induction of apoptosis	suppression of migration	low oral toxicity	–	significantly downregulated	significantly higher	–	excellent	reached statistical significance
Cc1cc(-c2ccco2)nn1S(=O)(=O)Oc1ccccc1Cl [Compound 5f]	–	concentration-dependent antiproliferative effects	induction of apoptosis	suppression of migration	–	significantly suppressed	slightly influenced the expression, although not significantly	significantly higher	–	–	–
